{"source": "patent US9427455B2", "about": "“Use of the pat nanopeptide in the treatment of autoimmune diseases” (CLL PHARMA, priority 2008, dated 2016)", "format_in_all_cases": "in vivo", "key": {"[1]": {"system": "arthritic rats of OFA (SD) strain", "assay": "Arthritis induced by Freund's adjuvant (Mycobacterium butyricum) in the rat", "conditions": "for volume of the leg: 5 times per week during 3 weeks, from Day 14 until Day 21, FIG. 4; for hypersensitivity measured by the plantar test: Day 16, equivalent to non-arthritic reference group, FIG. 6; for erythrocyte sedimentation rate (ESR): FIG. 7; for macroscopic clinical score: FIG. 5", "experimental": "We used the model of arthritis induced by Freund' adjuvant as described in the article of Milan et al., J Neurosci 1986; 6: 899-906. The rats are administered with Mycobacterium butyricum develop usually a severe polyarthritis which resembles to that in human. Rats of OFA (SD) strain (Oncins France Strain A) weighing approximately 200 g received an […] of a 10 mg/ml Mycobacterium butyricum solution at the articulation of the right ankle. For all the measured parameters, the rats were divided into 5 groups (8 rats/group) in the following way: • reference group: the rats received a paraffin injection instead of the solution of Mycobacterium butyricum (no induced arthritis) then receive an intraperitoneal injection of saline solution; • arthritic group+injection of saline solution; • arthritic group+intraperitoneal injection of 3 mg/kg indomethacin; the indomethacin being a NSAID classically used as reference in this kind of test; • arthritic group+intraperitoneal injection of 0.4 […]; […] The products are administered 5 times per week during 3 weeks. At the beginning of the experimentation (day 0), one determines the initial values for the different parameters (volume of the leg, macroscopic clinical score, sedimentation test and hypersensitivity). During the experiment, several parameters are measured: • the volume of the leg (“paw latency duration”); • the globular sedimentation test (“Erythrocyte Sedimentation rate”); • the macroscopic score: • “0” means that no sign of arthritis was detected; • “1” means that a swelling or an inflammation was detected on a leg; • “2” means that a swelling or an inflammation was detected on two legs; • “3” means that a swelling or an inflammation was detected on at lest 3 legs; • “4” means that a swelling or an inflammation was detected on the 4 legs. • hypersensitivity according to the plantar test: carried out according to Yukinori Nagakura and al, Allodynia and hyperalgesia in adjuvant-induced arthritic rats: time course of progression and efficacy of analgesics, JPET 306: 490-497, 2003, or in Andersen M L and al “Evaluation of acute and chronic treatments with Harpagophytum procumbens one Freund's adjuvant-induced arthritis in rats”. J. Ethnopharmacol. 2004 April; 91 (2-3): 325-30; • the erythrocyte sedimentation rate (ESR): the increase in this one generally accompanies the clinical symptoms met in induced arthritis. The ESR is measured in the arthritic rats (at Day 21) 1 hour and 2 hours after the injection of PAT or indomethacin, according to the protocol of Mahajan S G, et al., Protective Effect of Ethanolic Extract of Seeds of Moringa will oleifera Lam. Against Inflammation Associated with Development of Arthritis in Rats. J. Immunotoxicol. 2007 January; 4 (1): 39-47."}, "[2]": {"system": "C57BL/6J mice with colitis induced by TNBS", "assay": "TNBS-induced experimental colitis in mice (animal weight, colon inflammation)", "conditions": "for effect on animal weight (weight loss induced by TNBS): FIG. 1", "experimental": "The PAT nonapeptide was studied in animal model of experimental colitis. In mice, one of the clearly established IBD colitis models is the one in which the induction is performed by the use of trinitrobenzene sulphonic acid (TNBS). TNBS is a hapten which, when it is administered by intrarectal route, induced a severe colonic transmural inflammation; the induced effects present many similarities with those induced by Crohn's disease (Elson C O et al Experimental models of inflammatory bowel disease. Gastroenterology 2003; 10: 1344-67; Strober W et al., The immunology of mucosal models of inflammation. Annu Rev Immunol 2002; 20: 495-49).\n(§1) Colitis is induced in C57BL/6J mice of 7-8 weeks old after TNBS administration per rectal route according to the protocol described by Sugimoto K. et al (Gastroenterology 2002: 123; 1912-1922). The administration is performed directly in the lumen of the colon (over a 3-4 cm length) by using a 1 ml-syringe and a polyethylene cannula (Intradermic PE-20, Becton Dickinson) of a 100 μl solution containing 2.5 mg of TNBS dissolved beforehand in 50 μl of ethanol. After the administration, the mice are maintained 30 seconds in vertical position.\nThe design of the study is the following: • one control batch of 5 mice treated by ethanol/PBS mixture (vol/vol): • one test batch of 10 mice to which TNBS is administered (2.5 mg in 50% ethanol); • one test batch of 10 mice to which TNBS and nonapeptide are administered with the amount of 1 μg/mouse; • one test batch of 10 mice to which TNBS and nonapeptide are administered with the amount of 5, μg/mouse; • one batch of 10 mice to which TNBS and nonapeptide are administered with the amount of 25 μg/mouse.\nThe PAT nonapeptide is administered by intraperitoneal route 30 minutes before the TNBS induction of colitis. Several mice (5 of each test batch; 2 of control batch) are sacrificed at day 1 after TNBS induction. The remaining mice (5 of each test batch; 3 of control batch) are sacrificed at day 3 after TNBS induction.\nThe animals are weighed every day until the sacrifice.\nAs soon as the animals are sacrificed, the colon is sampled and a macroscopic analysis is carried out."}, "IL-1β": {"system": "IL-1β", "assay": "Expression of IL-1β in colon by quantitative RT-PCR, TNBS colitis mice", "conditions": "25 μg of PAT; TNBS alone increases almost 50 fold; FIG. 3", "experimental": "as §1, with “position. […]” for “position.”\n(§2) The latter is carried out by denaturation with guanidine thiocyanate; cDNA synthesis is made starting from 1 ng of RNA using a kit (Euromedex). A quantitative PCR is carried out; the reaction is performed in a 25 μl final volume by using SYBR kit (Eurogentec). Stimulation rate is determined for each cytokine compared to reference cDNA which is that corresponding to […] ribosomal phosphoprotein."}, "IL-6": {"system": "IL-6", "assay": "Expression of IL-6 in colon by quantitative RT-PCR, TNBS colitis mice", "conditions": "25 μg of PAT per mouse; TNBS alone increases around 30 fold; FIG. 3", "experimental": "as §1, with “position. […]” for “position.”\nas §2"}, "TNF-α": {"system": "TNF-α", "assay": "Expression of TNF-α in colon by quantitative RT-PCR, TNBS colitis mice", "conditions": "PAT 25 μg/mouse; TNBS alone increases around 4 fold; FIG. 3", "experimental": "as §1, with “position. […]” for “position.”\nas §2"}, "IL-10": {"system": "IL-10", "assay": "Expression of IL-10 in colon by quantitative RT-PCR, TNBS colitis mice", "conditions": "PAT 25 μg/mouse before TNBS; not increased with TNBS alone; FIG. 3", "experimental": "as §1, with “position. […]” for “position.”\nas §2"}}, "data": [{"compound": "COc1ccc2c(c1)c(CC(=O)O)c(C)n2C(=O)c1ccc(Cl)cc1", "note": "[indomethacin, reference compound]", "values": [{"measurement": "volume of the leg", "setting": "[1]; indomethacin 3 mg/kg i.p.", "value": "notable reduction of inflammation and of the volume of the leg"}, {"measurement": "hypersensitivity measured by the plantar test", "setting": "[1]; indomethacin 3 mg/kg i.p.", "value": "hypersensitivity is very reduced"}, {"measurement": "erythrocyte sedimentation rate (ESR)", "setting": "[1]; indomethacin 3 mg/kg i.p., Day 21", "value": "reduced in a very important way"}, {"measurement": "macroscopic clinical score", "setting": "[1]; indomethacin 3 mg/kg i.p., compared to arthritic rats given saline solution", "value": "significant reduction in the macroscopic score"}]}, {"compound": "H EAKSQGGSD-NH2 (H-EAKSQGGSD-NH2) [PAT nonapeptide]", "values": [{"measurement": "effect on animal weight (weight loss induced by TNBS)", "setting": "[2]; PAT 1 μg/mouse i.p. 30 minutes before TNBS", "value": "do not show a significant effect"}, {"measurement": "effect on animal weight (weight loss induced by TNBS)", "setting": "[2]; PAT 5 μg/mouse i.p. 30 minutes before TNBS", "value": "do not show a significant effect"}, {"measurement": "effect on animal weight (weight loss induced by TNBS)", "setting": "[2]; PAT 25 μg/mouse i.p. 30 minutes before TNBS", "value": "allows to limit this weight loss"}, {"measurement": "colon length, on average", "setting": "[2]; TNBS-PAT treated mice, control mice 7 cm, TNBS-treated mice 5 cm", "value": 6.5, "unit": "cm"}, {"measurement": "colon inflammation caused by TNBS rectal injection (macroscopic analysis)", "setting": "[2]; i.p. 30 minutes before TNBS, dose dependant, maximal effect at 25 μg/mouse, FIG. 2", "value": "reduce to a significant extent inflammation"}, {"measurement": "IL-1β cytokine expression", "setting": "IL-1β", "value": "decreases to a significant extent"}, {"measurement": "IL-6 expression", "setting": "IL-6", "value": "decreases to a significant extent"}, {"measurement": "TNF-α expression", "setting": "TNF-α", "value": "the increase is notably reduced"}, {"measurement": "increase of IL-10 anti-inflammatory cytokine level", "setting": "IL-10", "value": "more than 3 fold"}, {"measurement": "progression of arthritis", "setting": "[1]; PAT 0.4 μg/kg (i.p), leg, peripheral hypersensitivity and ESR", "value": "reduce very significantly the progression of arthritis"}, {"measurement": "efficacy compared with indomethacin 3 mg/kg", "setting": "[1]; PAT 0.4 μg/kg (i.p.), a dose 7500 fold lower than indomethacin", "value": "at least a similar efficacy"}, {"measurement": "volume of the leg", "setting": "[1]; PAT 0.4 μg/kg i.p.", "value": "notable reduction of inflammation and of the volume of the leg"}, {"measurement": "hypersensitivity measured by the plantar test", "setting": "[1]; PAT 0.4 μg/kg i.p.", "value": "hypersensitivity is very reduced"}, {"measurement": "erythrocyte sedimentation rate (ESR)", "setting": "[1]; PAT 0.4 μg/kg i.p., Day 21, 1 hour after the injection, compared to indomethacin group, very similar to reference rats", "value": "more reduced ESR"}, {"measurement": "macroscopic clinical score", "setting": "[1]; PAT 0.4 μg/kg i.p., compared to arthritic rats given saline solution", "value": "significant reduction in the macroscopic score"}, {"measurement": "volume of the leg", "setting": "[1]; PAT 4 μg/kg i.p.", "value": "notable reduction of inflammation and of the volume of the leg"}, {"measurement": "hypersensitivity measured by the plantar test", "setting": "[1]; PAT 4 μg/kg i.p.", "value": "hypersensitivity is very reduced"}, {"measurement": "erythrocyte sedimentation rate (ESR)", "setting": "[1]; PAT 4 μg/kg i.p., Day 21", "value": "did not have a significant effect on the reduction of ESR"}, {"measurement": "macroscopic clinical score", "setting": "[1]; PAT 4 μg/kg i.p., compared with 0.4 μg/kg", "value": "shows less effects"}]}]}
